Experimental data as given in patent US20080306073A1, “Antitumor Effect Potentiator, Antitumor Preparation, and Method for Treating Cancer” (priority 2005, published 2008).
Like-named read-outs stand apart in the source and are kept apart here. Marks after values point to notes of the source that are not given here.

Legend:
[1] = system: human colon cancer xenograft KM20C strain; experiment: Antitumor effect on human colon cancer xenograft KM20C in nude rats (Pharmacological Test Example 1); settings: TS-1 12 or UFT 24 mg/kg/day as tegafur (+ LV 20) po 14 days, l-OHP 10 mg/kg iv day 1
Text: A tegafur/gimeracil/oteracil potassium compound pharmaceutical agent (tegafur/gimeracil/oteracil potassium molar ratio=1:0.4:1, hereinafter sometimes referred to as TS-1), a tegafur/uracil compound pharmaceutical agent (tegafur/uracil molar ratio=1:4, hereinafter sometimes referred to as UFT), and d,l-calcium folinate were independently dissolved or suspended in 0.5% hydroxypropylmethyl cellulose (HPMC) solutions, and pharmaceutical preparations were formulated so as to allow administration thereof in a final dosage of 10 mL/kg.
l-OHP was dissolved in 5% aqueous glucose solution (Otsuka Glucose, manufactured by Otsuka Pharmaceutical Factory Inc.), thereby giving an l-OHP preparation.
A fragment measuring about 2 mm cubic fragment of the human colon cancer xenograft KM20C strain was subcutaneously implanted on the backs of male nude rats F344/NJcl-rnu. When the average tumor volume (=0.5×major axis (mm)×minor axis (mm)^2) reached about 200 mm^3, the rats were divided into groups (day 0).
The TS-1 preparation or the UFT+LV preparation prepared above was orally administered once a day in amounts presented in Table 1 from the day after grouping (day 1) for 14 consecutive days. The l-OHP preparation was administered into the tail vein on day 1 at 10 mg/kg immediately before the administration of the aforementioned preparations.
The ratio of the tumor volume upon grouping (day 0) to the tumor volume on day 15 was regarded as the relative tumor volume: Tumor volume on day 15/Tumor volume on day 0
The extent of tumor growth inhibition (%) was calculated using the average relative tumor volume of the drug-administered groups and the average relative tumor volume of the control group:
[1−(Relative tumor volume of drug-administered group)/(Relative tumor volume of tumor-bearing control group)]×100 (%)
The difference in body weight between rats on day 0 and rats on day 15 presented as a ratio (extent of body weight change) was used as an index of systemic toxicity of the pharmaceutical preparation: […]

[2] = system: human colon cancer xenograft COL-1 strain; settings: TS-1 where given 6.9 mg/kg as tegafur po 14 days; for Relative tumor volume (Mean): day 15/day 0; for Extent of tumor growth inhibition (%): day 15; for Extent of body weight change (%): day 15 vs day 0
Experimental: A fragment measuring about 2 mm cubic fragment of the human colon cancer xenograft COL-1 strain was subcutaneously implanted on the backs of male nude mice BALB/c-nu/nu. When the average tumor volume (=0.5×major axis (mm)×minor axis (mm)^2) reached about 125 mm^3, the mice were divided into groups (day 0).
For the determination of antitumor effect, the ratio of the tumor volume upon grouping (day 0) to the tumor volume on day 15 was calculated to obtain a relative tumor volume. The extent of tumor growth inhibition was determined using the average relative tumor volumes of the drug-administered groups and the control group.
The extent of body weight change between the mice on day 0 and the mice on day 15 was used as an index of systemic toxicity of l-OHP.

[3] = system: human colon cancer xenograft HCT-15 strain; experiment: Action toward a multidrug-resistant strain (Pharmacological Test Example 3); assay type: in vivo, male nude mice BALB/c-nu/nu
Text: A fragment measuring about 2 mm cubic fragment of the human colon cancer xenograft HCT-15 strain, which expresses P-glycoprotein in large amounts and is resistant to multiple drugs, was subcutaneously implanted on the backs of male nude mice BALB/c-nu/nu. When the average tumor volume (=0.5×major axis (mm)×minor axis (mm)^2) reached about 200 mm^3, the mice were divided into groups (day 0). A TS-1 preparation as prepared in Pharmacological Test Example 1 was orally administered to the mice once a day in an amount as shown in Table 3 from day 1 for 14 consecutive days. The l-OHP preparation was administered only once into the tail vein on day 1 at 10.0 mg/kg immediately before the administration of the TS-1 preparation. The extent of tumor growth inhibition was calculated as in Pharmacological Test Example 1. Using the relative tumor volumes on day 15, the difference in relative tumor volume between the control group and the drug-administered groups was determined according to a Dunnett's test, and the difference between the one which was given either TS-1 or l-OHP and the one which was given TS-1 and l-OHP in combination was evaluated according to Student's t-test.

[4] = system: human colon cancer xenograft COL-1 strain; settings: l-OHP into the tail vein on days 1 and 8
Experimental: A fragment measuring about 2 mm cubic fragment of the human colon cancer xenograft COL-1 strain was subcutaneously implanted on the backs of male nude mice BALB/c-nu/nu. When the average tumor volume (=0.5×major axis (mm)×minor axis (mm)^2) reached about 170 mm^3, the mice were divided into groups (day 0).
For the determination of antitumor effect, the ratio of the tumor volume upon grouping (day 0) to the tumor volume on day 15 was calculated to obtain a relative tumor volume. The extent of tumor growth inhibition was determined using the average relative tumor volumes of the drug-administered groups and the control group. Using the relative tumor volumes on the test day, the statistical significance of the difference in relative tumor volume between the control group and the one which was given the pharmaceutical agents was analyzed according to a Dunnett's test; and the statistical significance of the difference in relative tumor volume between the one which was given TS-1 and l-OHP in combination and the one which was given capecitabine and l-OHP in combination was analyzed according to Student's t-test. The extent of body weight change between the mice on day 0 and the mice on day 15 was used as an index of systemic toxicity of the pharmaceutical preparations.

[5] = system: 5-FU-resistant strain of the human colon cancer xenograft KM12C strain; experiment: Action toward a 5-FU-resistant strain (Pharmacological Test Example 2); settings: TS-1 8.3 mg/kg/day as tegafur po 9 days, l-OHP 8.3 mg/kg iv day 1
Experimental: A fragment measuring about 2 mm cubic fragment of a 5-FU-resistant strain of the human colon cancer xenograft KM12C strain established by the applicant was subcutaneously implanted on the backs of male nude mice BALB/c-nu/nu. When the average tumor volume (=0.5×major axis (mm)×minor axis (mm)^2) reached about 200 mm^3, the mice were divided into groups (day 0). […] The ratio of the tumor volume on day 0 to the tumor volume on day 10 was calculated to obtain a relative tumor volume.

[6] = system: human colon cancer xenograft COL-1 strain; experiment: Preliminary test: maximum tolerable dose of capecitabine (Pharmacological Test Example 5); assay type: in vivo, male nude mice BALB/c-nu/nu; settings: capecitabine po once a day 14 days at 240, 360 or 540 mg/kg with l-OHP 4.2 mg/kg/day iv days 1 and 8
Experimental: A fragment measuring about 2 mm cubic fragment of the human colon cancer xenograft COL-1 strain was subcutaneously implanted on the backs of male nude mice BALB/c-nu/nu. When the average tumor volume (=0.5×major axis (mm)×minor axis (mm)^2) reached about 190 mm^3, the mice were divided into groups (day 0). Capecitabine suspended in 0.5% HPMC solution was orally administered to the mice once a day at 240, 360, or 540 mg/kg from the day after grouping for 14 consecutive days. l-OHP dissolved in 5% aqueous glucose solution was administered into the tail vein on days 1 and 8 at 4.2 mg/kg/day immediately before the administration of the Capecitabine. The difference in body weight between the mice on day 0 and the mice on day 15 presented as a ratio and the occurrence of death were used as indices of systemic toxicity of capecitabine.

5-FU decomposition = settings: compared with uracil; cited from earlier work
[7] = l-OHP 2.9 mg/kg iv days 1 and 8
[8] = l-OHP 3.5 mg/kg iv days 1 and 8
[9] = l-OHP 4.2 mg/kg iv days 1 and 8
[10] = l-OHP 5.0 mg/kg iv days 1 and 8

SMILES: O=C([O-])C(=O)[O-].[NH-][C@@H]1CCCC[C@H]1[NH-].[Pt+4] (relative stereo) [l-OHP, cis-oxalate(1R,2R-diaminocyclohexane)platinum(II)]
- Relative tumor volume (Mean) ([1]; day 15/day 0): 4.64
- Extent of tumor growth inhibition (%) ([1]; day 15): 20.1%
- Extent of body weight change (%) ([1]; day 15 vs day 0): 0.9%
- Relative tumor volume (Mean) [2, 7]: 5.06 ^§
- Relative tumor volume (Mean) [2, 8]: 4.54 ^§, *
- Relative tumor volume (Mean) [2, 9]: 4.43 ^§, **
- Relative tumor volume (Mean) [2, 10]: 4.41 ^§, **
- Extent of tumor growth inhibition (%) [2, 7]: 11.9%
- Extent of tumor growth inhibition (%) [2, 8]: 21.0%
- Extent of tumor growth inhibition (%) [2, 9]: 23.0%
- Extent of tumor growth inhibition (%) [2, 10]: 23.3%
- Extent of body weight change (%) [2, 7]: −18.0%
- Extent of body weight change (%) [2, 8]: −20.6%
- Extent of body weight change (%) [2, 9]: −19.0%
- Extent of body weight change (%) [2, 10]: −16.8%
- Number of dead animal [2, 7]: 0
- Number of dead animal [2, 8]: 0
- Number of dead animal [2, 9]: 0
- Number of dead animal [2, 10]: 0
- Relative tumor volume (Mean) ([3]; day 15/day 0, TS-1 10 mg/kg/day as tegafur po 14 days, l-OHP 10 mg/kg iv once day 1): 4.33
- Extent of tumor growth inhibition (%) ([3]; day 15, TS-1 10 mg/kg/day as tegafur po 14 days, l-OHP 10 mg/kg iv once day 1): 4.3%
- antitumor effect on the multidrug-resistant tumor (in words) ([3]; l-OHP alone, 10 mg/kg iv once day 1): barely shows any antitumor effect
- maximum tolerable dose [4]: 4.2 mg/kg/day
- Relative tumor volume (Mean) ([5]; day 10/day 0): 7.97
- Extent of tumor growth inhibition (%) ([5]; day 10): 16.1%
- Extent of body weight change (%) ([5]; day 10 vs day 0): −8.0%

SMILES: CCCCCOC(=O)Nc1nc(=O)n([C@@H]2O[C@H](C)[C@@H](O)[C@H]2O)cc1F [capecitabine]
- maximum tolerable dose at which death due to toxicity is not observed [6]: 360 mg/kg/day

SMILES: Oc1cc(O)c(Cl)cn1 [gimeracil, 2,4-dihydroxy-5-chloropyridine]
- 5-FU decomposition inhibitory action relative to that of uracil (5-FU decomposition): about 200 times
